Source: patent US20100204182A1, “ECTONUCLEOTIDASE INHIBITORS” (RHEINISCHE FRIEDRICH-WILHELMS-UNIVERSITAT BONN, priority 2006, published 2010)
Read-outs that look alike come from different tables or passages of the source.

Columns and labels:
human NTPDase1 = molecular target: T1, human NTPDase1 (Homo sapiens, UniProt P49961); test: NTPDase inhibition assay by capillary electrophoresis (CE), NTPDase1; format: biochemical; conditions: ATP 320 μM; for Ki: CE method, Km 17 μM, read-out: NTPDase1 Ki [μM] ± SEM; for inhibition at 1000 µM: 1 mM compound
T1 sequence (P49961 1-510): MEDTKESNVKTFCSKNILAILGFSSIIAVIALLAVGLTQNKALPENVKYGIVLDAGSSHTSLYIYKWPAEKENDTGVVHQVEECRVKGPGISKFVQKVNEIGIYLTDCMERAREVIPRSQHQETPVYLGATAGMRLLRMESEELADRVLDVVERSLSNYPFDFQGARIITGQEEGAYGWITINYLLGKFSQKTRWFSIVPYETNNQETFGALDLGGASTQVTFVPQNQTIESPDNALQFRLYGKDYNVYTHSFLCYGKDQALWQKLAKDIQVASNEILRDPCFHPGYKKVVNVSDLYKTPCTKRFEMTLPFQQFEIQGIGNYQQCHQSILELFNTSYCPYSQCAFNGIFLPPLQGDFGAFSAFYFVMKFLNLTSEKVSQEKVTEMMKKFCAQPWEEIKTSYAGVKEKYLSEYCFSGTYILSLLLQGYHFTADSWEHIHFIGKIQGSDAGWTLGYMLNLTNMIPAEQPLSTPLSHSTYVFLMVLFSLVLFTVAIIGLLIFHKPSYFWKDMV
Experimental: (§1) The applied enzyme inhibition assay has been described (Iqbal J, Vollmayer P, Braun N, Zimmermann H, Müller C E. A capillary electrophoresis method for the characterization of ecto-nucleoside triphosphate diphosphohydrolases (NTPDases) and the analysis of inhibitors by in-capillary enzymatic microreaction. Purinergic Signalling 2005, 1, 349-358).
(§2) A. CE instrumentation: All experiments were carried out using a P/ACE MDQ capillary electrophoresis system (Beckman Instruments, Fullerton, Calif., USA) equipped with a UV detection system coupled with a diode-array detector (DAD). Data collection and peak area analysis were performed by the P/ACE MDQ software 32 KARAT obtained from Beckman Coulter. The capillary temperature was kept constant at 25° C. The temperature of the sample storing unit was also adjusted to 25° C. The electrophoretic separations were carried out using an eCAP polyacrylamide-coated fused-silica capillary [(30 cm (20 cm effective length)×50 μm internal diameter (I.D.)×360 μm outside diameter (O.D.), obtained from CS-Chromatographie (Langerwehe, Germany)]. The separation was performed using an applied current of −60 μA and a data acquisition rate of 8 Hz. Analytes were detected using direct UV absorbance at 210 nm. The capillary was conditioned by rinsing with water for 2 min and subsequently with buffer (phosphate 50 mM, pH 6.5) for 1 min. Sample injections were made at the cathodic side of the capillary.
(§3) B. NTPDase inhibition assay by capillary electrophoresis: Enzyme inhibition assays were carried out at 37° C. in a final volume of 100 μl. The reaction mixture contained 320 μM of ATP (substrate) in reaction buffer. The reaction buffer contained 140 mM NaCl, 5 mM KCl, 1 mM MgCl2, 2 mM CaCl2, and 10 mM Hepes, pH 7.4.
(§4) Different concentrations of inhibitors dissolved in DMSO or water (10 μl) were added and the reaction was initiated by the addition of 10 μl of the appropriately diluted recombinant or native human or rat NTPDase enzyme. […] The mixture (final volume 100 μl) was incubated for 15 min and terminated by heating at 99° C. for 4 min. Aliquots of the reaction mixture (50 μl) were then transferred to mini-CE vials and injected into the CE instrument under the conditions described above. 20 μM of UMP was used as internal standard. Inhibition of NTPDase was tested over a range of 6 to 8 concentrations of test compound spanning 3 orders of magnitude to determine K1 values. Each analysis was repeated two times (in triplicates) in two separate experiments. The Cheng-Prusoff equation was used to calculate the K1 values from the IC50 values, determined by the non-linear curve fitting program PRISM® 3.0 (GraphPad, San Diego, Calif., USA). In table 1K, values of selected compounds as inhibitors of human NTPDases are given.

human NTPDase2 = molecular target: T2, human NTPDase2 (Homo sapiens, UniProt Q9Y5L3); test: NTPDase inhibition assay by capillary electrophoresis (CE), NTPDase2; format: biochemical; conditions: for inhibition at 1000 µM: read-out: NTPDase2 inhibition (%) at 1 mM
T2 sequence (Q9Y5L3 1-495): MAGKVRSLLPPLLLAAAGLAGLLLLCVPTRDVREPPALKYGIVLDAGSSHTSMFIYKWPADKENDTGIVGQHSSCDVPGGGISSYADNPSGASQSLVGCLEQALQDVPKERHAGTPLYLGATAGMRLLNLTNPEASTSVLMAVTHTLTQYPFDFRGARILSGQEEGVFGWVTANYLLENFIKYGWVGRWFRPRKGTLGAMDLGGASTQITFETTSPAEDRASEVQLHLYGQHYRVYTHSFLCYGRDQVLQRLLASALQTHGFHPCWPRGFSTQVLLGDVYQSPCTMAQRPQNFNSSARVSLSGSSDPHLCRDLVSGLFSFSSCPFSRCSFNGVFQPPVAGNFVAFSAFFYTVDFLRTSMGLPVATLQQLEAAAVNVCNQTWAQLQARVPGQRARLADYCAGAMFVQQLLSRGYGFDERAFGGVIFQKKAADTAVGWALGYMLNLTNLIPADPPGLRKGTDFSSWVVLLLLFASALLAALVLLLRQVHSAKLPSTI

human NTPDase8 = molecular target: T3, human NTPDase8 (Homo sapiens, UniProt Q5MY95); test: NTPDase inhibition assay by capillary electrophoresis (CE), NTPDase8; format: biochemical; conditions: for inhibition at 1000 µM: human NTPDase8, 1 mM compound, ATP 320 μM; for Ki: read-out: NTPDase8 Ki [μM] ± SEM
T3 sequence (Q5MY95 1-495): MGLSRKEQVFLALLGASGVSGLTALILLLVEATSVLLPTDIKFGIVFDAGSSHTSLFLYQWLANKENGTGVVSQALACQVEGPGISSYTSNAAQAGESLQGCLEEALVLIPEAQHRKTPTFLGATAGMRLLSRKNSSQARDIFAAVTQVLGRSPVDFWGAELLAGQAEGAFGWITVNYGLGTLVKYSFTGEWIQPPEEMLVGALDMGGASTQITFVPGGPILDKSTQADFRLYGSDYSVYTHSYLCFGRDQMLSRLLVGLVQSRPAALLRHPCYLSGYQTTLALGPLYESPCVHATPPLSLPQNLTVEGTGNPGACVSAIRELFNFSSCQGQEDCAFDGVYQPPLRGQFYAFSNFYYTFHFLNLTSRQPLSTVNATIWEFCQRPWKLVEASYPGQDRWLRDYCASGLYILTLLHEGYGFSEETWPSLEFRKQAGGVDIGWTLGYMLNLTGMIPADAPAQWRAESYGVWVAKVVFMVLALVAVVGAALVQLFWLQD
Experimental: as §1, §2, §3, §4

rP2Y6 = rP2Y6 (Rattus norvegicus, UniProt Q63371); test: Inhibition of UDP binding at rP2Y6; conditions: read-out: rP2Y6 % inhibition of UDP binding at 100 μM, n = 3, mean ± SEM
human NTPDase3 = molecular target: T4, human NTPDase3 (Homo sapiens, UniProt O75355); test: NTPDase inhibition assay by capillary electrophoresis (CE), NTPDase3; format: biochemical; conditions: ATP 320 μM; for inhibition at 1000 µM: 1 mM compound; for Ki: CE method, Km 75 μM, read-out: NTPDase3 Ki [μM] ± SEM
T4 sequence (O75355 1-529): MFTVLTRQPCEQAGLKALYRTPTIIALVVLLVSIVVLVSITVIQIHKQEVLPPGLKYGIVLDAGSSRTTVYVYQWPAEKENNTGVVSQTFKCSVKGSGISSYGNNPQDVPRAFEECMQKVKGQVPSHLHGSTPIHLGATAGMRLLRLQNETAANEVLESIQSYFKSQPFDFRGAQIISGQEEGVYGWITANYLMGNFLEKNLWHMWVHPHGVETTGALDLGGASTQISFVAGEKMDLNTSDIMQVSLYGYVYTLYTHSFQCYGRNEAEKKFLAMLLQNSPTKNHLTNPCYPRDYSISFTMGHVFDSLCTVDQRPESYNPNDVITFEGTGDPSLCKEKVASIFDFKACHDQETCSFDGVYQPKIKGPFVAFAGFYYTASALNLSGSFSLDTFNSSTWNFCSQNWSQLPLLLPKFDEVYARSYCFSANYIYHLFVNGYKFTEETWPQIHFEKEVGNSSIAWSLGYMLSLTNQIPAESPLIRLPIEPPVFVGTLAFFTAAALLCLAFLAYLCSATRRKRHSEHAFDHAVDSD
Experimental: as §1, §2, §3, §4

hP2Y12 = hP2Y12 (Homo sapiens, UniProt Q9H244); test: Inhibition of [3H]PSB-0413 binding at hP2Y12; conditions: mean ± SEM, read-out: hP2Y12 % Inhibition of [^3H]PSB-0413 Binding at 10 μM, n = 3
Experimental: In table 2 inhibition data of selected examples at human P2Y receptor subtypes were collected. It can be seen that no compound was identified that inhibited P2Y receptors at high concentrations of 100 μM and 10 μM, respectively.

[1] = human NTPDase2, CE method, ATP 320 μM, Km 70 μM, read-out: NTPDase2 Ki [μM] ± SEM

rP2Y6, sequence (Q63371 whole entry): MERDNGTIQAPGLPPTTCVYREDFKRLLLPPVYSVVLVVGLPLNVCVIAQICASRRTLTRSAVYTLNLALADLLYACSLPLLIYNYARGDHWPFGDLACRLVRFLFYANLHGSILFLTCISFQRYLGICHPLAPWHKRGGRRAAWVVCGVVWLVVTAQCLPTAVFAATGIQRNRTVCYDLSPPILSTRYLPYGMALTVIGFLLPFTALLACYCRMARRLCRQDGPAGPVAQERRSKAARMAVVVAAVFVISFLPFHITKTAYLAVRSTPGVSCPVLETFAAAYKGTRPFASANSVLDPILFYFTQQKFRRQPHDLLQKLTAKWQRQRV
hP2Y12, sequence (Q9H244 whole entry): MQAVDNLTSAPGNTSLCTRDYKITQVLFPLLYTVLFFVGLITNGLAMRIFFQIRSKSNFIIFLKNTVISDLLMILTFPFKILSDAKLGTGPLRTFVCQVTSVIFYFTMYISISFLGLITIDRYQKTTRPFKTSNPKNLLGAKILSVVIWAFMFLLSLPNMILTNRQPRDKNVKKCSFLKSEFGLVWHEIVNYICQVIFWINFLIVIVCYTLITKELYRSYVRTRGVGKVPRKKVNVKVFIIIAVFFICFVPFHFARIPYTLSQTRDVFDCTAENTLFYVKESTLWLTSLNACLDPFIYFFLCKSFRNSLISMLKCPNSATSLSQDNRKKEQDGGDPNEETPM

Row | Structure (SMILES) | Ki (human NTPDase1) | Ki (human NTPDase2; [1]) | inhibition at 1000 µM (human NTPDase8) | Ki (human NTPDase8) | inhibition at 100 µM (rP2Y6) | inhibition at 1000 µM (human NTPDase3) | Ki (human NTPDase3) | inhibition at 10 µM (hP2Y12) | inhibition at 1000 µM (human NTPDase1) | Ki (human NTPDase2) | inhibition at 1000 µM (human NTPDase2) | NTPDase2 inhibition (%) at 1 mM (human NTPDase2; human NTPDase2, 1 mM compound, ATP 320 μM)
1 | CCOP(=O)(CNC(=O)CNC(=O)[C@H]1O[C@@H](n2ccc(=O)[nH]c2=O)C(O)C1O)OCC (stereo in doubt) [Compound 5, 2-[(2S,3R,4S,5R)-5-(2,4-Dioxo-3,4-dihydropyrimidin-1(2H)-yl)-3,4-dihydroxy-tetrahydrofurane-2-carboxamido]ethaneamidomethylphosphonic acid diethylester] | 786 ± 33 µM | 71.7 ± 13.5 µM | 0% | > 100 µM | 17 ± 16% | 0% | > 200 µM | 31 ± 1% |  |  |  | 
2 | CCOP(=O)(OCC)C(NC(=O)CCNC(=O)[C@H]1O[C@@H](n2cnc3c(N)ncnc32)C(O)C1O)P(=O)(OCC)OCC (stereo in doubt) [CC4, 3-[(2S,3R,4S,5R)-5-(6-Amino-9H-purin-9-yl)-3,4-dihydroxy-tetrahydrofurane-2-carboxamido]propaneamidomethylenediphosphonic acid tetraethylester] | > 50 µM |  |  |  | 5 ± 8% |  |  |  | 0% | > 200 µM | 0% | 
3 | CCOP(=O)(Cc1ccc(NC(=O)CCCNC(=O)[C@H]2O[C@@H](n3cnc4c(N)ncnc43)C(O)C2O)cc1)OCC (stereo in doubt) [CC3, 4-[4-((2S,3R,4S,5R)-5-(6-Amino-9H-purin-9-yl)-3,4-dihydroxy-tetrahydro-furane-2-carboxamido)butaneamido]benzylphosphonic acid diethylester] | 161 ± 24 µM | 213 ± 34 µM | 0% | > 100 µM |  | 0% | > 200 µM | 5 ± 1% |  |  |  | 
4 | CCOP(=O)(OCC)C(NC(=O)CCCNC(=O)[C@H]1O[C@@H](n2cnc3c(N)ncnc32)C(O)C1O)P(=O)(OCC)OCC (stereo in doubt) [CC5, 4-[(2S,3R,4S,5R)-5-(6-Amino-9H-purin-9-yl)-3,4-dihydroxy-tetrahydrofurane-2-carboxamido]butaneamidomethylenediphosphonic acid tetraethylester] | > 50 µM |  |  |  | -5 ± 2% |  |  |  | 0% | > 200 µM | 0% | 
5 | CCOP(=O)(Cc1ccc(NC(=O)CCNC(=O)[C@H]2O[C@@H](n3cnc4c(N)ncnc43)C(O)C2O)cc1)OCC (stereo in doubt) [CC2, 4-[3-((2S,3R,4S,5R)-5-(6-Amino-9H-purin-9-yl)-3,4-dihydroxy-tetrahydro-furane-2-carboxamido)propaneamido]benzylphosphonic acid diethylester] | 154 ± 37 µM | 1440 ± 64 µM |  | 255 ± 25.3 µM |  | 0% | > 200 µM | 1 ± 6% |  |  |  | 
6 | CCOP(=O)(Cc1ccc(NC(=O)[C@H]2O[C@@H](n3ccc(=O)[nH]c3=O)C(O)C2O)cc1)OCC (stereo in doubt) [Compound 1, 4-[(2S,3R,4S,5R)-5-(2,4-Dioxo-3,4-dihydropyrimidin-1(2H)-yl)-3,4-dihydroxy-tetrahydrofurane-2-carboxamido]benzylphosphonic acid diethylester] |  |  |  |  | -12 ± 3% |  |  |  |  | 117 ± 15 µM |  | 
7 | CCOP(=O)(Cc1ccc(NC(=O)CNC(=O)[C@H]2O[C@@H](n3cnc4c(N)ncnc43)C(O)C2O)cc1)OCC (stereo in doubt) [CC1, 4-[2-((2S,3R,4S,5R)-5-(6-Amino-9H-purin-9-yl)-3,4-dihydroxy-tetrahydro-furane-2-carboxamido)ethaneamido]benzylphosphonic acid diethylester] | > 50 µM |  | 0% | > 100 µM |  | 0% | > 200 µM | -4 ± 6% | 0% | > 200 µM | 0% | 
8 | CCOP(=O)(CC(=O)OCCNC(=O)CNC(=O)[C@H]1O[C@@H](n2ccc(=O)[nH]c2=O)[C@@H](O)[C@H]1O)OCC [Compound 9, 2-[(2S,3R,4S,5R)-5-(2,4-Dioxo-3,4-dihydropyrimidin-1(2H)-yl)-3,4-dihydroxy-tetrahydro-furane-2-carboxamido]ethaneamido-ethyloxycarbonyl methylenephosphonic acid diethylester] |  | ~165 µM |  |  |  |  |  |  |  |  |  | 54%
